Laboratory results reported in US11162083B2, “Peptide based inhibitors of Raf kinase protein dimerization and kinase activity” (UNIVERSITY OF SOUTH CAROLINA, priority 2018, dated 2021).

Columns and labels:
[1] = system: NRASQ61K-mutant SBC12 melanoma cells; assay: Western blotting of MEK/ERK signaling in melanoma cells; settings: peptide added to SBC12 cells; 1 μM PLX4032 or DMSO; Western blot
Protocol: Following recovery at 37° C. for 30 minutes, the cells were treated with 1 μM PLX4032 for 1 hour or DMSO as a vehicle control. Subsequently, the cells were harvested, lysed using RIPA buffer and analyzed by Western blotting using the indicated antibodies. […] Four hours prior to harvest, the cells were treated with 1 μM vemurafenib (PLX4032), or the same volume of DMSO as vehicle control. RIPA buffer lysates were subjected to Western blotting using the indicated antibodies. Detection of HSP90 serves as a representative loading control.
Following recovery at 37° C. for 30 minutes, cells were treated with 1 μM PLX4032 for 1 hour or DMSO as a vehicle control. Subsequently, the cells were harvested, lysed using RIPA buffer, and analyzed by Western blotting using the indicated antibodies.

dimer interface of B-Raf = dimer interface of B-Raf (Homo sapiens, UniProt P15056); assay: Dissociation constant (Kd) determination from intrinsic Trp fluorescence (ITF) measurements; type: binding; settings: for Kd, binding affinity to the dimer forming interface of B-Raf (FIG. 1): no unit printed in this block
Sequence of dimer interface of B-Raf (P15056 whole entry): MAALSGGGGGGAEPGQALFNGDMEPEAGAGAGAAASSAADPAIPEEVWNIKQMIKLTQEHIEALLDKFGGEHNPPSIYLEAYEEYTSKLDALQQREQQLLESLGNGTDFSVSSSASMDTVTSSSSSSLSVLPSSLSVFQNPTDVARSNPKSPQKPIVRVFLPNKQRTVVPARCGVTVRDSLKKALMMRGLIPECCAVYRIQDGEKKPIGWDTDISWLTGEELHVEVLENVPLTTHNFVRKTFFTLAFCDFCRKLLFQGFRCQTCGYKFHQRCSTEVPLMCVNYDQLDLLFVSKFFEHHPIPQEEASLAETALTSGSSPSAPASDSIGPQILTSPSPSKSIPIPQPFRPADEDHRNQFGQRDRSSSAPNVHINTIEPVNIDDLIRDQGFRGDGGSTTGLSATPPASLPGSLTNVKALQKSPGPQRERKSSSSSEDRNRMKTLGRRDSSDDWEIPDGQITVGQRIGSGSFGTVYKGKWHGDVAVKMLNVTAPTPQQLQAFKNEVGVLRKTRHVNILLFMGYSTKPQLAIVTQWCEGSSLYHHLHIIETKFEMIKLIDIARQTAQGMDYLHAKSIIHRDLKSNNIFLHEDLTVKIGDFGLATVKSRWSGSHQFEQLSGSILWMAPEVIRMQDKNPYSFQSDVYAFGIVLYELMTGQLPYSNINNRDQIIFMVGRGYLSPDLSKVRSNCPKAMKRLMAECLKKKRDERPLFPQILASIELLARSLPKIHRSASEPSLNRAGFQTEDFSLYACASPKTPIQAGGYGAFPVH
Protocol: The dissociation constant is an indicator of binding strength between two molecules. For the reaction: P+L↔PL Kd is expressed by Equation 1: Kd=[P][L]/[PL] Eq. 1 where [P] is the concentration of free Protein, [L] is the concentration of free Ligand, and [PL] is the Ligand-bound-Protein.
Fluorescence intensity was measured with a Hitachi F-2500 fluorescence spectrophotometer. A 1.6 mL of protein solution (0.5 μM) was placed in a cuvette and equilibrated at 15° C. for 1 hour. After equilibration, small increments (2-15 μL) of the ligand solution were injected in the cuvette. The experiments were performed in 20 mM Hepes buffer (pH 7.5), 10 mM MgCl2, 30 mM NaCl. […] The slits were set at 10 and 10 nm in the excitation and emission respectively. To determine dilution effect of B-Raf (due to ligand addition) and any fluorescence effect by unbound ligand, a blank sample containing Trp with the same fluorescence signal, was titrated with ligand additions as described above. The sample absorbance was kept below 0.1 to minimize the inner filter effect.
Dissociation constant of B-Raf/Ligand was calculated by fitting data in Eq. 2.
Data were analyzed using Origin 7, using the one site bind function for nonlinear fit.

B-Raf = B-Raf (Homo sapiens, UniProt P15056); type: binding
Sequence of B-Raf (P15056 whole entry): as above
Description: An isothermal titration calorimeter composed of two identical cells surrounded by an adiabatic jacket was used to perform ITC measurements. The thermopile/thermocouple circuits were used to detect temperature differences between a reference cell (filled with buffer or water) and a sample cell containing the macromolecule. During an experiment, ligand is titrated into the sample cell in precisely known aliquots, causing heat to be either taken up or evolved (depending on the nature of the reaction). Measurements consist of the time-dependent input of power required to maintain equal temperatures between the sample and reference cells. In an exothermic reaction, the temperature in the sample cell increases upon addition of ligand. This causes the feedback power to the sample cell to be decreased (remember: a reference power is applied to the reference cell) in order to maintain an equal temperature between the two cells. In an endothermic reaction, the opposite occurs; the feedback circuit increases the power in order to maintain a constant temperature (isothermic/isothermal operation). […] The pattern of these heat effects as a function of the molar ratio [ligand]/[macromolecule] can then be analyzed to give the thermodynamic parameters of the interaction under study.

Molecule: CC[C@H](C)[C@H](NC(=O)[C@H](CC(N)=O)NC(=O)[C@@H](NC(=O)[C@H](Cc1c[nH]cn1)NC(=O)[C@H](CCCNC(=N)N)NC(=O)[C@@H](NC(=O)[C@H](CCCCN)NC(=O)[C@H](CCCNC(=N)N)NC(=O)[C@H](CC(C)C)NC(=O)[C@@H](N)C(C)C)[C@@H](C)O)C(C)C)C(=O)N[C@@H](CC(C)C)C(=O)N[C@@H](CC(C)C)C(=O)N[C@@H](Cc1ccccc1)C(=O)N[C@@H](CCSC)C(=O)NCC(=O)O [SEQ ID NO: 17]
- downstream signaling of MEK and ERK (pMEK, pERK) [1]: reduce downstream signaling of MEK and ERK

Molecule: GVLRKTHHVNILGFWGYST [SEQ ID NO: 2]
- Kd, binding affinity to the dimer forming interface of B-Raf (FIG. 1) (dimer interface of B-Raf): no measurable binding

Molecule: GVLRKTRHVNILLDMGYST [SEQ ID NO: 14]
- Kd, binding affinity to the dimer forming interface of B-Raf (FIG. 1) (dimer interface of B-Raf): no measurable binding

Molecule: GVLRKTRFVNILLFMGYST [SEQ ID NO: 9]
- Kd, binding affinity to the dimer forming interface of B-Raf (FIG. 1) (dimer interface of B-Raf): no measurable binding

Molecule: CC[C@H](C)[C@H](NC(=O)[C@H](CC(N)=O)NC(=O)[C@@H](NC(=O)[C@H](Cc1cnc[nH]1)NC(=O)[C@H](CCCNC(=N)N)NC(=O)[C@@H](NC(=O)[C@H](CCCCN)NC(=O)[C@H](CCCNC(=N)N)NC(=O)[C@H](CC(C)C)NC(=O)[C@@H](NC(=O)CN)C(C)C)[C@@H](C)O)C(C)C)C(=O)N[C@@H](CC(C)C)C(=O)N[C@@H](CC(C)C)C(=O)N[C@@H](Cc1ccccc1)C(=O)N[C@@H](CCSC)C(=O)NCC(=O)N[C@@H](Cc1ccc(O)cc1)C(=O)N[C@@H](CO)C(=O)N[C@H](C(=O)O)[C@@H](C)O [SEQ ID NO: 1]
- Kd (dimer interface of B-Raf): ~3840 nM

Molecule: CC[C@H](C)[C@H](NC(=O)[C@H](CC(N)=O)NC(=O)[C@@H](NC(=O)[C@H](Cc1cnc[nH]1)NC(=O)[C@H](CCCNC(=N)N)NC(=O)[C@@H](NC(=O)[C@H](CCCCN)NC(=O)[C@H](CC(C)C)NC(=O)[C@H](CC(C)C)NC(=O)[C@@H](NC(=O)CN)C(C)C)[C@@H](C)O)C(C)C)C(=O)N[C@@H](CC(C)C)C(=O)N[C@@H](CC(C)C)C(=O)N[C@@H](Cc1ccccc1)C(=O)N[C@@H](CCSC)C(=O)NCC(=O)N[C@@H](Cc1ccc(O)cc1)C(=O)N[C@@H](CO)C(=O)N[C@H](C(=O)O)[C@@H](C)O [SEQ ID NO: 6]
- Kd (dimer interface of B-Raf): ~540 nM

Molecule: CC[C@H](C)[C@H](NC(=O)[C@H](CC(N)=O)NC(=O)[C@@H](NC(=O)[C@H](Cc1c[nH]cn1)NC(=O)[C@H](CCCNC(=N)N)NC(=O)[C@H](C)NC(=O)[C@H](CCCCN)NC(=O)[C@H](CCCNC(=N)N)NC(=O)[C@H](CC(C)C)NC(=O)[C@@H](NC(=O)CN)C(C)C)C(C)C)C(=O)N[C@@H](CC(C)C)C(=O)N[C@@H](CC(C)C)C(=O)N[C@@H](Cc1ccccc1)C(=O)N[C@@H](CCSC)C(=O)NCC(=O)N[C@@H](Cc1ccc(O)cc1)C(=O)N[C@@H](CO)C(=O)N[C@H](C(=O)O)[C@@H](C)O [SEQ ID NO: 8]
- ΔH of binding (ITC) (B-Raf): -8.32 kcal/mol
- ΔS of binding (ITC) (B-Raf): −28.4 J/mol·K
